This assay has as its target T1, Angiotensin II Receptor (Bos taurus, UniProt P25104).
T1 construct: The brownish tissue forming the adrenal cortex is scraped off and finely minced with scissors before homogenization; from tissue; host or cells: beef adrenal cortex, microsomal membranes (100,000 x g pellet)
T1 sequence (P25104 1-359): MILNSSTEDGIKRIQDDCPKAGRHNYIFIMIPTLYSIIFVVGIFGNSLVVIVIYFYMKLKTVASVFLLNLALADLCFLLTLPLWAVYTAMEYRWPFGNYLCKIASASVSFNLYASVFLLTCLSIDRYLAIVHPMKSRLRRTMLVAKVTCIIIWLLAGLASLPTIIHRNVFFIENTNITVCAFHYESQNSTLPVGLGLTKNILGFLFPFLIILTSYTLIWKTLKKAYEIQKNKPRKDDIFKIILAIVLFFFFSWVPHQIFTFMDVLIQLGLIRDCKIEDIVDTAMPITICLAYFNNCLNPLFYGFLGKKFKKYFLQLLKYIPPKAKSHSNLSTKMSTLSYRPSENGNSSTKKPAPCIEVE
The assay is described as follows: Receptor binding assay: binding of [^125 I](Sar^1,Ile^8)AngII. The following applies: beef adrenal cortex membranes, 60 min, room temperature. An excerpt: Beef adrenals are obtained from a local slaughter house (Maxwell-Cohen). [^125 I](Sar^1,Ile^8)AngII, S. A. 2200 Ci/mmole, is purchased from Dupont (NEN®, Boston, Mass.). All unlabeled AngII analogs, Dimethylsulfoxide (DMSO), nucleotides, bovine serum albumin (BSA) are purchased from Sigma Chemical Co., St. Louis, Mo. U.S.A.
Approximately sixteen (16) to twenty (20) beef adrenal glands are processed as follows: fresh adrenal glands received on crushed ice are cleaned of fatty tissues and the tough membranes encapsulating the glands are removed and discarded. […] A 100 ul aliquot is withdrawn and the protein content of the preparation is determined by the Lowry's method (Lowry, O. H., Rosebrough, N. P., Farr, A. L. and Randall, R. J., Protein measurement with Polin phenol reagent. J. Biol. Chem., […], 265-275, 1951). […]
The binding of [^125 I](Sar^1 Ile^8)AngII to microsomal membranes is initiated by the addition of reconstituted membranes (1:10 vols.) in freshly made 50.0 mM Tris.HCl buffer, pH 7.4 containing 0.25% heat inactivated bovine serum albumin (BSA): 80 ul membrane protein (10 to 20 ug/assay) to wells already containing 100 ul of incubation buffer (as described above) and 20 ul [^125 I](Sar^1 Ile^8)AngII (Specific Activity, 2200 Ci/mmole). Non-specific binding is measured in the presence of 1.0 uM unlabeled (Sar^1,Ile^8)AngII, added in 20 ul volume. […]

Our source for the IC50 values is US5292734A, “Angiotensin II receptor blocking 2,3,6 substituted quinazolinones” (American Cyanamid Company, priority 1993, dated 1994).

The structures appear in SMILES notation.

The term IC50 denotes the midpoint of a concentration-inhibition curve.

The molecule `CCCCc1nc2ccc(C(O)CC3CCCN3)cc2c(=O)n1Cc1ccc(-c2ccccc2-c2nnn[nH]2)cc1` (racemic) [Example 80, CIS-(+/-)-2-Butyl-6-[1-hydroxy-2-(2-pyrrolidinyl)ethyl]-3-[[2'-(1H-tetrazol-5-yl)[1,1'-biphenyl]-4-yl]methyl] -4(3H)-quinazolinone] yielded an IC50 of 0.041 µM.
